{
  "source": "ChEMBL document CHEMBL1139693",
  "about": "“Structure-based design of a novel thiazolone scaffold as HCV NS5B polymerase allosteric inhibitors” (Bioorg Med Chem Lett, 2006)",
  "test": "Inhibition of HCV NS5B polymerase",
  "parameters": "species or system Hepacivirus hominis",
  "data": [
    {"smiles": "Cc1ccc(S(=O)(=O)NC2=NC(=O)/C(=C/c3ccc(C)o3)S2)cc1", "values": [
      {"measurement": "IC50", "result": 2000, "unit": "nM"}
    ]}
  ]
}
